Assay results taken from patent publication EP0684822B1, “CARBOCYCLIC DEOXYGUANOSINE ANALOGS FOR THE TREATMENT OF VIRAL INFECTIONS” (SOUTHERN RESEARCH INSTITUTE, priority 1993, dated 1994).
≈ marks a conversion by molar mass, not a printed value. Where “and” joins values, the source holds several entries; their conditions need not be identical. Equal values may be shown once.

Columns and labels:
HSV-1 TK = biological target: T1, HSV-1 TK (Human herpesvirus 1, UniProt P0DTH5); experiment: Competitive inhibition of [3H]-thymidine phosphorylation by partially purified HSV-1 TK; type: biochemical
T1 construct: HSV thymidine kinase (HSV TK) was isolated from HELA (BU25) cells infected with the SW148 strain of HSV-1; made in house; host or cells: HeLa (BU25) thymidine-kinase-deficient cells infected with HSV-1 strain S148/SW148
Method: The Ki's were determined from a plot of the slope of each line versus the concentration of the competitor (D-, L, or D,L-2'CdG) and are summarized below: TABLE 2

[1] = tested on: H.Ep.-2 cells infected with HSV-1; experiment: Metabolism in HSV-1-infected H.Ep.-2 cells, SAX HPLC; type: cell-based, human; settings: H.Ep.-2 cells infected with HSV-1, 8 hours, Fig. 4
Method: The in vivo metabolism of D- and L-2'CdG was also measured in HSV-[TK+]-infected, HSV-[TK-]-infected and mock infected H.Ep.-2 cells (human epidermal carcinoma cells, ATCC CCL23). Uninfected and infected cells were incubated in fresh medium containing 2 µCi/ml of either [^3H]-D- or L-2'CdG, as described above, to measure the metabolism of these enantiomers. After 8 hours the cells were harvested and washed free of medium with PBS, and extracts were prepared with cold 0.5 N perchloric acid for 0.5 hr. The extract was then neutralized with potassium bicarbonate and the resulting precipitate was removed by centrifugation. The supernatant was lyophilized to dryness and the acid-soluble metabolites were separated using SAX HPLC as described above.
(§1) While these findings are similar to those obtained with the isolated viral kinase, they differ from the resulted with the isolated enzyme in that relatively more di- and triphosphate were formed from L-2'CdG.

CCRF-CEM cells = experiment: Phosphorylation in uninfected CCRF-CEM cells, effects of dCyd and mycophenolic acid; type: cell-based; settings: for increase in the phosphates in the presence of mycophenolic acid / reduction of the amount of phosphates in the presence of dCyd: Fig. 6; for reduction of the amount of phosphates in the presence of dCyd: calculated from the radioactivity in the peaks
Method: as §1
Identity of the cellular enzyme(s) responsible for the phosphorylation of the enantiomers of 2'CdG. […] 36:291, 1989). To determine if dCyd kinase was involved, studies were carried out in which cells were indubated with D- or L-2'CdG and dCyd, and the formation of phosphates was monitored by HPLC. […] The presence of mycophenolic acid produced an increase in the phosphates of D- or L-2'CdG of 2.5-fold and 1.4-fold, respectively.

HSV-2 (strain MS, TK+) = experiment: Antiviral activity against HSV-2; type: cell-based; settings: HSV-2
Method: D-2'-CdG and L-2'-CdG were tested, alongside D,L-2'-CdG, against both HSV-1 (strain 377, TK+; obtained from Dr. Earl Kern, University of Alabama) and HSV-2 (strain MS, TK+; also obtained from Dr. Earl Kern). In these tests (Table 5), Ara-A and acyclovir (ACV) were the positive control drugs. In four tests vs. HSV-1, the antiviral activity (VR) and potency (MIC50) of D-2'-CdG were approximately the same as those of racemic 2-CdG. L-2'-CdG was only modestly active.
These compounds were tested against HSV-2(TK^+). The VR of ACV was somewhat higher than the VR values of D-2'-CdG and D,L-2'-CdG, but the values of MIC50 of the two forms of 2'-CdG were lower. In addition, experiments comparing the antiviral activity D-2'-CdG with acyclovir against HSV-1 in human foreskin fibroblasts have shown an even greater potency, in favor of D-2'-CdG.

HBV = HBV DNA production and replication in 2.2.15 cell cultures; type: cell-based, Hepatitis B virus (HBV); settings: for anti-HBV activity (in words): 50 ng/ml to 5 ug/ml, 2.2.15 cells; for INTRACELLULAR HBV DNA INTEG. / INTRACELLULAR HBV DNA MONO. / INTRACELLULAR HBV DNA RI: 24 hours following 10th day of treatment; for HBV DNA IN CULTURE MEDIUM DAY 0: day 0 of treatment
Method: 2'-CdG was tested at three concentrations (50 ng/ml, 500 ng/ml, and 5 ug/ml) against the HBV-producing, human liver cell line, 2.2.15 (Sells et al., J. Virol. 62:2836, 1989). A racemic (D,L) preparation, as well as the purified D and L isomers were tested. For these analyses compounds were tested in duplicate at all concentrations. Ara-AMP and ddG (2'3'-dideoxyguanosine) were used as HBV inhibitory control compounds. […] The nucleoside analog, ddG was used as an additional control compound since ddG has activity against duck hepatitis B virus in chronically infected Peking ducks (Lee et al., Antimicrob. Agents Chemother. 33:336, 1989) and 2'-CdG is also a deoxyguanosine analog.
2.2.15 cells were seeded in 6 well culture plates and grown to confluence over a 10 day period in medium with 5% FBS. Test compounds were then added daily for a continuous 10 day period in medium with 1% dialyzed FBS. […] Compounds were tested, in duplicate cultures, at 3 concentrations covering a 100-fold range. Culture medium (changed daily during the treatment period) was collected and stored for analysis of extracellular (virion) HBV DNA from days 0, 3, 6, and 10 of the treatment period. This allowed for an analysis of the level of HBV virion production during discrete 24 hour intervals and reduced the potential for the buildup of toxic metabolites derived from the test compounds. Treated cells were lysed following the 10th day of treatment for the analysis of intracellular HBV genomic forms. HBV DNA was analyzed in a quantitative manner for (i) overall levels (both extracellular and intracellular DNA) and (ii) the relative rate of HBV replication (intracellular DNA only).
HBV DNA levels were measured by comparison to known amounts of HBV DNA standards applied to every nitrocellulose filter (gel or slot blot) using an AMBIS Beta Scanner. Standard curves, generated by multiple analyses, were used to correlate CPM measurements with relative levels of target HBV DNA. The levels of HBV DNA in each of three classes of intracellular viral genomic forms were individually quantitated: integrated HBV DNA, episomal monomeric genomes and HBV DNA replication intermediates (RI). Integrated HBV DNA was used to normalize the relative amounts of DNA in each lane because the levels of this class of HBV DNA would be expected to remain constant on a per cell basis. The levels of the monomeric HBV genomes and RI were used as an indicator of the relative level of HBV replication.

T1 sequence (P0DTH5 whole entry): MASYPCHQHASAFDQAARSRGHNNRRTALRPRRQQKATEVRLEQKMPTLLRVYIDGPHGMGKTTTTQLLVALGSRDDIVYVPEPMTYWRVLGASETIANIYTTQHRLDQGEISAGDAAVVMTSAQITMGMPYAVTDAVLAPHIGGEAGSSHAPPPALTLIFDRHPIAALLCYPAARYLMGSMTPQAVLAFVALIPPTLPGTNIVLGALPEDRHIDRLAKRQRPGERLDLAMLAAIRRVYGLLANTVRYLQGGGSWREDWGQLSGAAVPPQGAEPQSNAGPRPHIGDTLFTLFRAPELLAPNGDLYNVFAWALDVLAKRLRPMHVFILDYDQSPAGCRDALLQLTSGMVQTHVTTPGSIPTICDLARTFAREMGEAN

Nc1nc2c(ncn2[C@@H]2C[C@H](CO)[C@@H](O)C2)c(=O)[nH]1 [D-2'-CdG, [1R,3S,4R-(1α,3β,4α)]-D-2-Amino-1,9-dihydro-9-[3-hydroxy-4-(hydroxymethyl)cyclopentyl]-6H-purin-6-one]
Ki (HSV-1 TK): 2.1 µM
principal soluble metabolite [1]: the triphosphate
increase in the phosphates in the presence of mycophenolic acid (CCRF-CEM cells): 2.5 fold
reduction of the amount of phosphates in the presence of dCyd (CCRF-CEM cells): 80-90%
predominant metabolite (CCRF-CEM cells; uninfected CEM cells, Fig. 5): the triphosphate
VR (HSV-2 (strain MS, TK+)): 3.8
EC50 (HSV-2 (strain MS, TK+); Human alphaherpesvirus 2, read-out: Mic50): 0.7 µg/mL (≈ 2.64 µM)
anti-HBV activity (in words) (HBV): as active an inhibitor of HBV replication as the racemic mixture
INTRACELLULAR HBV DNA INTEG. (HBV; 50ng/ml, listed as D, 2CdG): 1.6 PG/UG CELL DNA and 1.3 PG/UG CELL DNA
INTRACELLULAR HBV DNA MONO. (HBV; 50ng/ml, listed as D, 2CdG): 1.3 PG/UG CELL DNA and 2.1 PG/UG CELL DNA
INTRACELLULAR HBV DNA RI (HBV; 50ng/ml, listed as D, 2CdG): 16 PG/UG CELL DNA and 20 PG/UG CELL DNA
HBV DNA IN CULTURE MEDIUM DAY 0 (HBV; 50ng/ml, listed as D, 2CdG): 100 pg/mL and 77 pg/mL
HBV DNA IN CULTURE MEDIUM DAY 3 (HBV; 50ng/ml, listed as D, 2CdG): 110 pg/mL and 70 pg/mL
HBV DNA IN CULTURE MEDIUM DAY 6 (HBV; 50ng/ml, listed as D, 2CdG): 38 pg/mL and 40 pg/mL
INTRACELLULAR HBV DNA RI (HBV; 500ng/ml): 1 PG/UG CELL DNA
INTRACELLULAR HBV DNA INTEG. (HBV; 500ng/ml, listed as D, 2-CdG): 1.0 PG/UG CELL DNA and 1.6 PG/UG CELL DNA
INTRACELLULAR HBV DNA MONO. (HBV; 500ng/ml, listed as D, 2-CdG): 1.9 PG/UG CELL DNA and 1.8 PG/UG CELL DNA
HBV DNA IN CULTURE MEDIUM DAY 0 (HBV; 500ng/ml, listed as D, 2-CdG): 80 pg/mL and 90 pg/mL
HBV DNA IN CULTURE MEDIUM DAY 3 (HBV; 500ng/ml, listed as D, 2-CdG): 36 pg/mL and 43 pg/mL
HBV DNA IN CULTURE MEDIUM DAY 6 (HBV; 500ng/ml, listed as D, 2-CdG): 15 pg/mL and 14 pg/mL
INTRACELLULAR HBV DNA MONO. (HBV; 5 ug/ml): 2.0 PG/UG CELL DNA
HBV DNA IN CULTURE MEDIUM DAY 0 (HBV; 5 ug/ml, listed as D, 2-CdG): 100 pg/mL and 120 pg/mL
HBV DNA IN CULTURE MEDIUM DAY 3 (HBV; 5 ug/ml, listed as D, 2-CdG): 18 pg/mL and 21 pg/mL
HBV DNA IN CULTURE MEDIUM DAY 6 (HBV; 5 ug/ml, listed as D, 2-CdG): 3 pg/mL and 6 pg/mL
HBV DNA IN CULTURE MEDIUM DAY 10 (HBV; 5 ug/ml): 0 pg/mL

Nc1nc2c(ncn2[C@H]2C[C@@H](CO)[C@H](O)C2)c(=O)[nH]1 [L-2'-CdG, [1S,3R,4S-(1α,3β,4α)]-L-2-Amino-1,9-dihydro-9-[3-hydroxy-4-(hydroxymethyl)cyclopentyl]-6H-purin-6-one]
Ki (HSV-1 TK): 3.4 µM
principal soluble metabolite [1]: the monophosphate
increase in the phosphates in the presence of mycophenolic acid (CCRF-CEM cells): 1.4 fold
reduction of the amount of phosphates in the presence of dCyd (CCRF-CEM cells): 80-90%
predominant metabolite (CCRF-CEM cells; uninfected CEM cells, Fig. 5): the monophosphate
total amount of phosphates formed, relative to D-2'CdG (CCRF-CEM cells; uninfected CEM cells, Fig. 5): about twice that formed from D-2'CdG
VR (HSV-2 (strain MS, TK+)): 0
anti-HBV activity (in words) (HBV): did not exhibit any significant anti-HBV activity
INTRACELLULAR HBV DNA INTEG. (HBV; 50ng/ml, listed as L, 2-CdG): 1.3 PG/UG CELL DNA and 0.8 PG/UG CELL DNA
INTRACELLULAR HBV DNA MONO. (HBV; 50ng/ml, listed as L, 2-CdG): 1.4 PG/UG CELL DNA and 1.1 PG/UG CELL DNA
INTRACELLULAR HBV DNA RI (HBV; 50ng/ml, listed as L, 2-CdG): 90 PG/UG CELL DNA and 76 PG/UG CELL DNA
HBV DNA IN CULTURE MEDIUM DAY 0 (HBV; 50ng/ml, listed as L, 2-CdG): 48 pg/mL and 67 pg/mL
HBV DNA IN CULTURE MEDIUM DAY 3 (HBV; 50ng/ml, listed as L, 2-CdG): 47 pg/mL and 83 pg/mL
HBV DNA IN CULTURE MEDIUM DAY 6 (HBV; 50ng/ml, listed as L, 2-CdG): 90 pg/mL and 63 pg/mL
HBV DNA IN CULTURE MEDIUM DAY 10 (HBV; 50ng/ml, listed as L, 2-CdG): 90 pg/mL and 61 pg/mL
INTRACELLULAR HBV DNA MONO. (HBV; 500ng/ml): 1.9 PG/UG CELL DNA
INTRACELLULAR HBV DNA INTEG. (HBV; 500ng/ml, listed as L, 2-CdG): 1.4 PG/UG CELL DNA and 1.5 PG/UG CELL DNA
INTRACELLULAR HBV DNA RI (HBV; 500ng/ml, listed as L, 2-CdG): 82 PG/UG CELL DNA and 99 PG/UG CELL DNA
HBV DNA IN CULTURE MEDIUM DAY 0 (HBV; 500ng/ml, listed as L, 2-CdG): 90 pg/mL and 110 pg/mL
HBV DNA IN CULTURE MEDIUM DAY 3 (HBV; 500ng/ml, listed as L, 2-CdG): 63 pg/mL and 83 pg/mL
HBV DNA IN CULTURE MEDIUM DAY 6 (HBV; 500ng/ml, listed as L, 2-CdG): 78 pg/mL and 56 pg/mL
HBV DNA IN CULTURE MEDIUM DAY 10 (HBV; 500ng/ml, listed as L, 2-CdG): 97 pg/mL and 91 pg/mL
INTRACELLULAR HBV DNA INTEG. (HBV; 5 ug/ml, listed as L, 2-CdG): 1.5 PG/UG CELL DNA and 0.9 PG/UG CELL DNA
INTRACELLULAR HBV DNA MONO. (HBV; 5 ug/ml, listed as L, 2-CdG): 2.0 PG/UG CELL DNA and 1.1 PG/UG CELL DNA
INTRACELLULAR HBV DNA RI (HBV; 5 ug/ml, listed as L, 2-CdG): 97 PG/UG CELL DNA and 86 PG/UG CELL DNA
HBV DNA IN CULTURE MEDIUM DAY 0 (HBV; 5 ug/ml, listed as L, 2-CdG): 50 pg/mL and 88 pg/mL
HBV DNA IN CULTURE MEDIUM DAY 3 (HBV; 5 ug/ml, listed as L, 2-CdG): 67 pg/mL and 110 pg/mL
HBV DNA IN CULTURE MEDIUM DAY 6 (HBV; 5 ug/ml, listed as L, 2-CdG): 77 pg/mL and 120 pg/mL
HBV DNA IN CULTURE MEDIUM DAY 10 (HBV; 5 ug/ml, listed as L, 2-CdG): 90 pg/mL and 120 pg/mL
